Structures can show the parent of a compound that is named as a salt.
Assays:
[1] = Hygroscopicity of the solid salts; type: physicochemical; details: for hygroscopicity of the starting material: remark in brackets on the reagent used
[2] = milieu with a high relative humidity content; U.S. Pat. No. 4,602,039; cited from earlier work

| hygroscopicity of the starting material [1] | Compound | further results |
| --- | --- | --- |
| – | CCC(=O)O[C@H](CC(=O)O)C[N+](C)(C)C [Example 2, Propionyl L-Carnitine Salt with Taurine Chloride] | hygroscopicity of the isolated solid ([1]; white crystalline solid as obtained): non-hygroscopic |
| – | C[N+](C)(C)C[C@H](O)CC(=O)[O-].O=C(O)/C=C/C(=O)O [L-carnitine fumarate] | hygroscopicity of a prior-art salt [2]: highly non-hygroscopic |
| hygroscopic | NCC(=O)O [glycine hydrochloride] | – |
| hygroscopic | CCC(=O)O[C@H](CC(=O)[O-])C[N+](C)(C)C [propionyl L-carnitine inner salt] | – |

| Compound | hygroscopicity of the starting material [1] | further results |
| --- | --- | --- |
| CC(=O)O[C@H](CC(=O)[O-])C[N+](C)(C)C [acetyl L-carnitine inner salt] | hygroscopic | – |
